Reference: patent US20180194822A1, “DISRUPTION OF THE INTERACTION BETWEEN AMYLOID BETA PEPTIDE AND DIETARY LIPIDS” (THE TRUSTEES OF COLUMBIA UNIVERSITY IN THE CITY OF NEW YORK, priority 2015, published 2018)
“Also recorded” adds a separate entry of the source.

Tests used:
[1] = tested on: APPsw+ mice; experiment: Nesting behavior after intranasal SDPC; assay type: in vivo, mouse; conditions: 10 days intranasal low dose 0.5 mg/kg every other day, vs saline treated APPsw+
Method: FIGS. 4A-4D. 10 days treatment with low dose SDPC. (A) After 10 days treatment (Tx) with low dose phosphatidylcholine (PC) containing docosahexaenoyl (22:6) and stearoyl (18:0) acyl chains, 18:0-22:6 PC; 1-stearoyl-2-docosahexaenoyl-sn-glycero-3-phosphocholine (CAS Number 59403-52-0; Synonyms: 1-octadecanoyl-2-(4Z,7Z,10Z,13Z,16Z,19Z-docosahexaenoyl)-sn-glycero-3-phosphocholine and PC(18:0/22:6(4Z,7Z,10Z,13Z,16Z,19Z))) (SDPC) intranasally, nesting score was assessed as described before (114). The number of nestlettes (from 3 initially placed in cage) was estimated and exact weight of remaining nestlettes was determined in grams (g) from initial 3 nestlettes (approximately 2 g). (B) Activity during novel object recognition (NOR) training was assessed after 10 days intranasal SDPC. […] (D) Activity during Open Field testing 24 hours after NOR training (note, no difference in novel object discrimination (NOD) index was found. Standard error is shown for means of Saline treated APPsw+(control) (n=4); SDPC treated APPsw+(n=5) and wild type receiving no treatment (n=4). Significance was determined for […] using Student's t-test.
FIGS. 5A-5B. […] (A) After 30 days treatment (Tx) with low dose SDPC intranasally, nesting score was assessed as described (114). […] (B) Activity during NOR training was assessed after 10 days intranasal SDPC. […] Significance was determined for […] using Student's t-test. […]

[2] = tested on: APPsw+ mice; experiment: Novel object recognition (NOR) and activity during NOR training after intranasal SDPC; assay type: in vivo, mouse
Method: (§1) FIGS. 4A-4D. 10 days treatment with low dose SDPC. (A) After 10 days treatment (Tx) with low dose phosphatidylcholine (PC) containing docosahexaenoyl (22:6) and stearoyl (18:0) acyl chains, 18:0-22:6 PC; 1-stearoyl-2-docosahexaenoyl-sn-glycero-3-phosphocholine (CAS Number 59403-52-0; Synonyms: 1-octadecanoyl-2-(4Z,7Z,10Z,13Z,16Z,19Z-docosahexaenoyl)-sn-glycero-3-phosphocholine and PC(18:0/22:6(4Z,7Z,10Z,13Z,16Z,19Z))) (SDPC) intranasally, nesting score was assessed as described before (114). The number of nestlettes (from 3 initially placed in cage) was estimated and exact weight of remaining nestlettes was determined in grams (g) from initial 3 nestlettes (approximately 2 g). (B) Activity during novel object recognition (NOR) training was assessed after 10 days intranasal SDPC. Grooming behavior, free rearing, wall rearing and center crossing events are shown and were summed in total events. (C) Time spent with each identical object during NOR training. (D) Activity during Open Field testing 24 hours after NOR training (note, no difference in novel object discrimination (NOD) index was found. Standard error is shown for means of Saline treated APPsw+(control) (n=4); SDPC treated APPsw+(n=5) and wild type receiving no treatment (n=4). Significance was determined for p>0.05 using Student's t-test.
FIGS. 5A-5B. Nesting and activity after 30 days treatment with escalating dose SDPC. (A) After 30 days treatment (Tx) with low dose SDPC intranasally, nesting score was assessed as described (114). The number of nestlettes remaining (from 3 initially placed in cage) was estimated and exact weight of remaining nestlettes was determined in grams (g remaining) from initial 3 nestlettes (approximately 2 g). (B) Activity during NOR training was assessed after 10 days intranasal SDPC. Grooming behavior, free rearing, wall rearing and center crossing events were summed in total events. Standard error is shown for means of Saline treated APPsw+(control) (n=4); SDPC treated APPsw+(n=5) and wild type receiving no treatment (n=4). Significance was determined for […] using Student's t-test.
FIGS. 6A-6B. 30 days treatment with escalating dose SDPC. (A) Mice were placed in a box with two identical objects for 10 minutes on the training day 1. […] One object was replaced with a novel object for testing (NOD index). The same data is shown to scale in FIG. 6B (Testing (immediate)). Twenty-four hours later (Testing (24 hours)), mice were placed in the same context with one of the original identical objects (Familiar) and a second novel object (Novel). The time spent with each object was recorded. (B) For testing, novel object discrimination (NOD index) is assessed using the equation [(time novel)/(time familiar+time novel)].
NOD index of 0.5 represents equal time with each object. NOD>0.5 represents more time spent with novel object. Standard error is shown for means of Saline treated APPsw+(control) (n=4); SDPC treated APPsw+(n=5) and wild type receiving no treatment (n=4). Significance was determined for p>0.05 using Student's t-test.
SDPC was obtained from Avanti Polar Lipids (850472C) in chloroform, dried under vacuum conditions and resuspended in 0.9% saline (0.9% sodium chloride injection, USP, NDC 0409-7983-61, Hospira) containing 0.2% (weight:volume) methyl cellulose (average Mn 40,000, viscosity: 400 cP, CAS 9004-67-5, Sigma-Aldrich 274429) to aid in solubilization. A control solution of 0.9% saline containing 0.2% methyl cellulose was prepared at the same time without SDPC. A concentration of 3 mg/ml was used for doses 1-15 and 12 mg/ml was used for doses 16-18 (FIG. 3). Brief (3-5 minutes) bath sonication was used to improve solubility of 12 mg/ml concentration.
Mice were treated for 10 days at a low dose of SDPC intranasally administered 2.5 uL each nostril (5 μL total dose) for 0.5 mg/kg every other day assuming average mouse weight of 30 g (0.03 kg) (FIG. 3). […]

[3] = tested on: APPsw+ mice; experiment: Open Field testing after intranasal SDPC; assay type: in vivo, mouse; conditions: 10 days intranasal low dose; does not reach significance
Method: as §1, with “t-test. […]” for “t-test.”

[4] = tested on: APPsw+ mice; experiment: Novel object recognition (NOR) and activity during NOR training after intranasal SDPC; assay type: in vivo, mouse; conditions: 30 days intranasal escalated dose (0.5 then 2 mg/kg), SDPC vs saline treated APPsw+
[5] = biological target: T1, Aβ42 peptide fluorescently tagged with FAM (Homo sapiens, UniProt P05067); experiment: Lipid binding assay: Aβ42-FAM on lipid-coated maleic anhydride plates
T1 construct: SensoLyte Fluorescent β-Amyloid1-42 Sampler Kit, Anaspec; purchased Anaspec SensoLyte Fluorescent β-Amyloid1-42 Sampler Kit (catalogue number not given)
From the text: Maleic Anhydride Activated plates (Pierce Amine-binding, 96-well plates, Thermo Scientific) were washed in wash buffer (PBS: Phosphate buffered saline, 0.15 M sodium chloride, pH 7.2 containing 0.05% Tween-20 Detergent, PBST, Thermo Scientific) 4 times to activate reactive maleic anhydride functional group. Amine containing lipids were PE containing docosahexaenoyl (22:6) and stearoyl (18:0) acyl chains (22:6/18:0 PE) or two stearoyl acyl chains (di18:0 PE) were from Avanti Polar Lipids. 22:6/18:0 PE was obtained in chloroform, dried down and solubilized at 200 pmol/μL in 1% n-octylglucoside (NOG, Santa Cruz) in PBS and sonicated for 5 minutes. di18:0 PE was obtained as a powder, solubilized at 200 pmol/μl in 1% NOG and bath sonicated for 5 minutes. […] Plates were then washed 4 times in PBST and fluorescence was detected using Tecan Infinite 200 at wavelengths 494/521 (excitation, emission) using the Optimal Gain setting. […]
(§2) Lipid containing long chain polyunsaturated fatty acid 22:6, docosahexaenoic acid (DHA) and an amine containing headgroup, phosphatidylethanoloamine (PE) was bound to maleic anhydride activated plates which bind to free primary amine functional groups at neutral and alkaline pH. […] Specific binding was calculated by subtracting background binding of di18:0 PE.

[6] = biological target: Aβ:ApoE:lipid binding complex (Homo sapiens, UniProt P05067); experiment: ApoE binding assay: fluorescent Aβ42 on ApoE-coated plates in presence of lipid; design: SensoLyte Fluorescent β-Amyloid1-42 Sampler Kit, Anaspec; HiLyte Fluor (fluorescent label); purchased ApoE: rPeptide; labelled Aβ: Anaspec; conditions: only at very high concentrations of Aβ
Method: Plates were prepared as above and incubated with a constant amount of apolipoprotein E (ApoE, rPeptide) at 12.5 pmol/well FIG. 2A or 4 pmol/well FIG. 2B for 1 hour at room temperature with shaking. Plates were then blocked for 1 hour and washed with PB ST. Aβ labled with HiLyte (Anaspec) was prepared as above and mixed with increasing amount of lipid in constant concentration of NOG (0.0034%) in SuperBlock Blocking buffer and incubated overnight at 4° C. Binding was read as above at 503/528 excitation/emission).
Assays were done in triplicate wells and reported as mean+/−standard error. Binding kinetics and best fit curve fitting were accomplished using Prism Graphpad software.
Specific binding was determined by subtracting non-specific binding to the plate in absence of ApoE (no ApoE, 0).

[7] = biological target: T2, Aβ42-FAM bound to lipids containing 22:6 (Homo sapiens, UniProt P05067); experiment: Competition of Aβ42-FAM binding to plate-bound 22:6 lipid; conditions: competitor 5×, 1 μM
T2 construct: SensoLyte Fluorescent β-Amyloid1-42 Sampler Kit, Anaspec; purchased Anaspec SensoLyte Fluorescent β-Amyloid1-42 Sampler Kit (catalogue number not given)
From the text: Maleic Anhydride Activated plates (Pierce Amine-binding, 96-well plates, Thermo Scientific) were washed in wash buffer (PBS: Phosphate buffered saline, 0.15 M sodium chloride, pH 7.2 containing 0.05% Tween-20 Detergent, PBST, Thermo Scientific) 4 times to activate reactive maleic anhydride functional group. Amine containing lipids were PE containing docosahexaenoyl (22:6) and stearoyl (18:0) acyl chains (22:6/18:0 PE) or two stearoyl acyl chains (di18:0 PE) were from Avanti Polar Lipids. […] Plates were then washed 4 times in PBST and fluorescence was detected using Tecan Infinite 200 at wavelengths 494/521 (excitation, emission) using the Optimal Gain setting.
Scrambled Aβ or unlabeled Aβ42 peptides (Anaspec) were diluted to 100 μM as above and then diluted in SuperBlock Blocking buffer to 1 μM, incubated for 1 hour at room temperature. Plates were washed and FAM fluorescence was read as above.
as §2

[8] = 30 days intranasal escalated dose

CC/C=C\C/C=C\C/C=C\C/C=C\C/C=C\C/C=C\CCC(=O)O[C@H](COC(=O)CCCCCCCCCCCCCCCCC)COP(=O)([O-])OCC[N+](C)(C)C [SDPC, 1-stearoyl-2-docosahexaenoyl-sn-glycero-3-phosphocholine]
nesting behavior [1]: trend toward improvement; also recorded: non-significant trend for improvement
NOR discrimination (NOD index), tested 24 hours after training ([2]; 10 days intranasal low dose): no discrimination was found; also recorded: no difference
activity during NOR training (wall rearing, free rearing, total activity level) ([2]; 10 days intranasal low dose 0.5 mg/kg every other day, vs saline treated APPsw+, 0.5 mg/kg): trend toward improvement; also recorded: non-significant trend for improvement
exploration: time spent with identical objects during NOR training ([2]; 10 days intranasal low dose 0.5 mg/kg every other day, 0.5 mg/kg): trend toward improved exploratory behavior; also recorded: non-significant trend toward exploration activity
NOR deficits: time spent with a novel object [2, 8]: significant amelioration
novel object discrimination index (NOD index) [2, 8]: significant changes were not observed; also recorded: trend for amelioration
discrimination of one displaced identical object (hippocampal function), training day 2 ([2]; 30 days intranasal escalating dose): no discrimination was determined
activity in the open field test following NOR testing [3]: continued improvement of activity level; also recorded: restored to the level of wild type non-treated mice
number of wall rears and total activity events [4]: significant improvement

CCCCCCCCCCCCCCCCCC(=O)OC[C@H](COP(=O)(O)OCCN)OC(=O)CCCCCCCCCCCCCCCCC [di18:0 PE]
binding of Aβ42-FAM to plate-bound lipid ([5]; for di18:0: concentrations 10,000 pmol/well and below): very low binding activity
binding of Aβ42-FAM to plate-bound lipid at the highest concentrations ([5]; highest lipid concentrations (above 10,000 pmol/well)): modest binding
Aβ42-FAM binding to apoE in presence of lipid [6]: only very minimally

unlabeled Aβ42 peptide: unlabeled Aβ42 peptide (Anaspec) used as competitor
disruption of Aβ42-FAM binding to 22:6 lipid by competitor peptide [7]: competitively disrupted
